Laboratory results published in ChEMBL document CHEMBL5634099, “Pyrrole-thiazolidinone hybrids as a new structural class of broad-spectrum anti-infectives” (Eur J Med Chem, 2023).
Converted amounts (≈) assume the structure as drawn.

Columns and labels:
Format in all cases: functional
[1] = tested on: Mycolicibacterium fortuitum; test: Antimycobacterial activity against Mycobacterium fortuitum ATCC 6841 assessed as bacterial growth inhibition incubated for 7 days by resazurin dye based assay; details: ATCC 6841, 168 h, time 7 day
Escherichia coli = test: Antibacterial activity against Escherichia coli ATCC 25922 assessed as bacterial growth inhibition incubated for 16 to 18 hrs by CLSI based susceptibility testing method; details: time 16-18 hrs
Staphylococcus aureus = test: Antibacterial activity against Staphylococcus aureus ATCC 29213 assessed as bacterial growth inhibition incubated for 16 to 18 hrs by CLSI based susceptibility testing method; details: time 16-18 hrs
Klebsiella pneumoniae = test: Antibacterial activity against Klebsiella pneumoniae BAA 1705 assessed as bacterial growth inhibition incubated for 16 to 18 hrs by CLSI based susceptibility testing method; details: time 16-18 hrs
Pseudomonas aeruginosa = test: Antibacterial activity against Pseudomonas aeruginosa ATCC 27853 assessed as bacterial growth inhibition incubated for 16 to 18 hrs by CLSI based susceptibility testing method; details: time 16-18 hrs
[2] = tested on: Mycobacterium tuberculosis; test: Antimycobacterial activity against Mycobacterium tuberculosis H37Rv ATCC 27294 assessed as bacterial growth inhibition incubated for 7 days by resazurin dye based assay; details: H37Rv ATCC 27294, 168 h, time 7 day
Mycobacteroides chelonae = test: Antimycobacterial activity against Mycobacteroides chelonae ATCC 35752 assessed as bacterial growth inhibition incubated for 7 days by resazurin dye based assay; details: ATCC 35752, 168 h, time 7 day
Acinetobacter baumannii = test: Antibacterial activity against Acinetobacter baumannii BAA 1605 assessed as bacterial growth inhibition incubated for 16 to 18 hrs by CLSI based susceptibility testing method; details: time 16-18 hrs
[3] = tested on: Mycobacteroides abscessus; test: Antimycobacterial activity against Mycobacterium abscessus ATCC 19977 assessed as bacterial growth inhibition incubated for 7 days by resazurin dye based assay; details: ATCC 19977, 168 h, time 7 day

Q: `Cc1cc(/C=C2\S/C(=N/c3nccs3)NC2=O)c(C)n1-c1ccccc1Br` was tested. Which MIC [1] did it give?
A: > 64 µg/mL

Q: And the MIC (Escherichia coli)?
A: > 64 µg/mL

Q: And the MIC (Staphylococcus aureus)?
A: 4 µg/mL (≈ 8.71 µM)

Q: And the MIC (Klebsiella pneumoniae)?
A: > 64 µg/mL

Q: What about the MIC (Pseudomonas aeruginosa) of the same compound?
A: > 64 µg/mL

Q: What about the MIC [2] of the same compound?
A: 8 µg/mL (≈ 17.4 µM)

Q: And the MIC (Mycobacteroides chelonae)?
A: > 64 µg/mL

Q: And the MIC (Acinetobacter baumannii)?
A: > 64 µg/mL

Q: And the MIC [3]?
A: > 64 µg/mL

Q: For `COc1cccc(-n2c(C)cc(/C=C3\S/C(=N/c4nc(C)c(C)s4)NC3=O)c2C)c1`, which MIC [1] is on record?
A: > 64 µg/mL

Q: What about the MIC (Escherichia coli) of the same compound?
A: > 64 µg/mL

Q: What about the MIC (Staphylococcus aureus) of the same compound?
A: > 64 µg/mL

Q: What about the MIC (Klebsiella pneumoniae) of the same compound?
A: > 64 µg/mL

Q: And the MIC (Pseudomonas aeruginosa)?
A: > 64 µg/mL

Q: And the MIC [2]?
A: 2 µg/mL (≈ 4.56 µM)

Q: And the MIC (Mycobacteroides chelonae)?
A: > 64 µg/mL

Q: And the MIC (Acinetobacter baumannii)?
A: > 64 µg/mL

Q: And the MIC [3]?
A: > 64 µg/mL

Q: With `Cc1cc(/C=C2\S/C(=N/c3nccs3)NC2=O)c(C)n1-c1ccc([N+](=O)[O-])cc1` as the compound, how does the MIC [1] read?
A: > 64 µg/mL

Q: What about the MIC (Escherichia coli) of the same compound?
A: > 64 µg/mL

Q: And the MIC (Staphylococcus aureus)?
A: > 64 µg/mL

Q: And the MIC (Klebsiella pneumoniae)?
A: > 64 µg/mL

Q: And the MIC (Pseudomonas aeruginosa)?
A: > 64 µg/mL

Q: And the MIC [2]?
A: > 64 µg/mL

Q: What about the MIC (Mycobacteroides chelonae) of the same compound?
A: > 64 µg/mL

Q: And the MIC (Acinetobacter baumannii)?
A: > 64 µg/mL

Q: And the MIC [3]?
A: > 64 µg/mL

Q: For `Cc1cc(/C=C2\S/C(=N/c3nccs3)NC2=O)c(C)n1-c1cccc(F)c1`, which MIC [1] is on record?
A: > 64 µg/mL

Q: What about the MIC (Escherichia coli) of the same compound?
A: > 64 µg/mL

Q: And the MIC (Staphylococcus aureus)?
A: 1 µg/mL (≈ 2.51 µM)

Q: What about the MIC (Klebsiella pneumoniae) of the same compound?
A: > 64 µg/mL

Q: What about the MIC (Pseudomonas aeruginosa) of the same compound?
A: > 64 µg/mL

Q: What about the MIC [2] of the same compound?
A: 8 µg/mL (≈ 20.1 µM)

Q: What about the MIC (Mycobacteroides chelonae) of the same compound?
A: > 64 µg/mL

Q: What about the MIC (Acinetobacter baumannii) of the same compound?
A: > 64 µg/mL

Q: And the MIC [3]?
A: > 64 µg/mL

Q: For `COc1cccc(-n2c(C)cc(/C=C3\S/C(=N/c4nccs4)NC3=O)c2C)c1`, which MIC [1] is on record?
A: > 64 µg/mL

Q: And the MIC (Escherichia coli)?
A: > 64 µg/mL

Q: What about the MIC (Staphylococcus aureus) of the same compound?
A: 64 µg/mL (≈ 156 µM)

Q: And the MIC (Klebsiella pneumoniae)?
A: > 64 µg/mL

Q: What about the MIC (Pseudomonas aeruginosa) of the same compound?
A: > 64 µg/mL

Q: And the MIC [2]?
A: > 64 µg/mL

Q: What about the MIC (Mycobacteroides chelonae) of the same compound?
A: > 64 µg/mL

Q: What about the MIC (Acinetobacter baumannii) of the same compound?
A: > 64 µg/mL

Q: What about the MIC [3] of the same compound?
A: > 64 µg/mL

Q: `COc1ccccc1-n1c(C)cc(/C=C2\S/C(=N/c3nc(C)c(C)s3)NC2=O)c1C` was tested. Which MIC [1] did it give?
A: > 64 µg/mL

Q: And the MIC (Escherichia coli)?
A: > 64 µg/mL

Q: What about the MIC (Staphylococcus aureus) of the same compound?
A: > 64 µg/mL

Q: What about the MIC (Klebsiella pneumoniae) of the same compound?
A: > 64 µg/mL

Q: What about the MIC (Pseudomonas aeruginosa) of the same compound?
A: > 64 µg/mL

Q: What about the MIC [2] of the same compound?
A: > 64 µg/mL

Q: What about the MIC (Mycobacteroides chelonae) of the same compound?
A: > 64 µg/mL

Q: What about the MIC (Acinetobacter baumannii) of the same compound?
A: > 64 µg/mL

Q: What about the MIC [3] of the same compound?
A: > 64 µg/mL

Q: Which results are given for `Cc1nc(/N=C2\NC(=O)/C(=C/c3cc(C)n(-c4ccc(C#N)c(Cl)c4)c3C)S2)sc1C`?
A: MIC [1]: > 64 µg/mL; MIC (Escherichia coli): > 64 µg/mL; MIC (Staphylococcus aureus): > 64 µg/mL; MIC (Klebsiella pneumoniae): > 64 µg/mL; MIC (Pseudomonas aeruginosa): > 64 µg/mL; MIC [2]: > 64 µg/mL; MIC (Mycobacteroides chelonae): > 64 µg/mL; MIC (Acinetobacter baumannii): > 64 µg/mL; MIC [3]: > 64 µg/mL

Q: Which results are given for `Cc1nc(/N=C2\NC(=O)/C(=C/c3cc(C)n(-c4ccccc4O)c3C)S2)sc1C`?
A: MIC [1]: > 64 µg/mL; MIC (Escherichia coli): > 64 µg/mL; MIC (Staphylococcus aureus): > 64 µg/mL; MIC (Klebsiella pneumoniae): > 64 µg/mL; MIC (Pseudomonas aeruginosa): > 64 µg/mL; MIC [2]: > 64 µg/mL; MIC (Mycobacteroides chelonae): > 64 µg/mL; MIC (Acinetobacter baumannii): > 64 µg/mL; MIC [3]: > 64 µg/mL

Q: For `Cc1cc(/C=C2\S/C(=N/c3nccs3)NC2=O)c(C)n1-c1ccc(N2CCOCC2)cc1`, which MIC [1] is on record?
A: > 64 µg/mL

Q: And the MIC (Escherichia coli)?
A: > 64 µg/mL

Q: And the MIC (Staphylococcus aureus)?
A: 16 µg/mL (≈ 34.4 µM)

Q: And the MIC (Klebsiella pneumoniae)?
A: > 64 µg/mL

Q: And the MIC (Pseudomonas aeruginosa)?
A: > 64 µg/mL

Q: And the MIC [2]?
A: 4 µg/mL (≈ 8.59 µM)

Q: What about the MIC (Mycobacteroides chelonae) of the same compound?
A: > 64 µg/mL

Q: What about the MIC (Acinetobacter baumannii) of the same compound?
A: > 64 µg/mL

Q: And the MIC [3]?
A: > 64 µg/mL

Q: `Cc1cc(/C=C2\S/C(=N/c3nccs3)NC2=O)c(C)n1-c1ccccc1O` was tested. Which MIC [1] did it give?
A: > 64 µg/mL

Q: What about the MIC (Escherichia coli) of the same compound?
A: > 64 µg/mL

Q: What about the MIC (Staphylococcus aureus) of the same compound?
A: 1 µg/mL (≈ 2.52 µM)

Q: And the MIC (Klebsiella pneumoniae)?
A: > 64 µg/mL

Q: What about the MIC (Pseudomonas aeruginosa) of the same compound?
A: > 64 µg/mL

Q: What about the MIC [2] of the same compound?
A: 16 µg/mL (≈ 40.4 µM)

Q: What about the MIC (Mycobacteroides chelonae) of the same compound?
A: > 64 µg/mL

Q: What about the MIC (Acinetobacter baumannii) of the same compound?
A: > 64 µg/mL

Q: What about the MIC [3] of the same compound?
A: > 64 µg/mL

Q: Which MIC [1] does the source give for `Cc1cc(/C=C2\S/C(=N/c3nccs3)NC2=O)c(C)n1-c1ccc([N+](=O)[O-])c(C(F)(F)F)c1` here?
A: > 64 µg/mL

Q: And the MIC (Escherichia coli)?
A: > 64 µg/mL

Q: What about the MIC (Staphylococcus aureus) of the same compound?
A: > 64 µg/mL

Q: And the MIC (Klebsiella pneumoniae)?
A: > 64 µg/mL

Q: What about the MIC (Pseudomonas aeruginosa) of the same compound?
A: > 64 µg/mL

Q: What about the MIC [2] of the same compound?
A: > 64 µg/mL

Q: And the MIC (Mycobacteroides chelonae)?
A: > 64 µg/mL

Q: What about the MIC (Acinetobacter baumannii) of the same compound?
A: > 64 µg/mL

Q: What about the MIC [3] of the same compound?
A: > 64 µg/mL

Q: Which MIC [1] does the source give for `Cc1nc(/N=C2\NC(=O)/C(=C/c3cc(C)n(-c4ccccc4)c3C)S2)sc1C` here?
A: > 64 µg/mL

Q: What about the MIC (Escherichia coli) of the same compound?
A: > 64 µg/mL

Q: What about the MIC (Staphylococcus aureus) of the same compound?
A: > 64 µg/mL

Q: What about the MIC (Klebsiella pneumoniae) of the same compound?
A: > 64 µg/mL

Q: And the MIC (Pseudomonas aeruginosa)?
A: > 64 µg/mL

Q: What about the MIC [2] of the same compound?
A: > 64 µg/mL

Q: What about the MIC (Mycobacteroides chelonae) of the same compound?
A: > 64 µg/mL

Q: And the MIC (Acinetobacter baumannii)?
A: > 64 µg/mL

Q: What about the MIC [3] of the same compound?
A: > 64 µg/mL
